For this assay, the target named is bovine cardiac myofibrils (full-length cardiac myosin ATPase in the native sarcomere) (Bos taurus (Bovine), UniProt Q9BE39). Briefly: Skinned bovine cardiac myofibril ATPase assay (PK/LDH-coupled). Format: biochemical. The following applies: Ca2+ activating to 75% of maximal rate; for CDMF75 IC15: concentration giving 15% inhibition; for IC50: read-out: CDMF75 IC50. The method in brief: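 Inhibition of steady-state ATPase read at 340 nm through a PK/LDH-coupled NADH system (0.5 mM NADH, 1.5 mM PEP). Detergent-skinned bovine cardiac myofibrils, 1 mg/mL, were tested at pH 6.8 in PIPES/MgCl2 with 50 μM ATP and calcium adjusted to give pCa50 or pCa75 activation.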

Where only a bound is given, the exact number is not on record here.

This note sets out measurements from patent US12065436B2, “Cardiac sarcomere inhibitors” (Cytokinetics, Inc., priority 2018, dated 2024).

Chain of bovine cardiac myofibrils (full-length cardiac myosin ATPase in the native sarcomere) (Q9BE39 whole entry): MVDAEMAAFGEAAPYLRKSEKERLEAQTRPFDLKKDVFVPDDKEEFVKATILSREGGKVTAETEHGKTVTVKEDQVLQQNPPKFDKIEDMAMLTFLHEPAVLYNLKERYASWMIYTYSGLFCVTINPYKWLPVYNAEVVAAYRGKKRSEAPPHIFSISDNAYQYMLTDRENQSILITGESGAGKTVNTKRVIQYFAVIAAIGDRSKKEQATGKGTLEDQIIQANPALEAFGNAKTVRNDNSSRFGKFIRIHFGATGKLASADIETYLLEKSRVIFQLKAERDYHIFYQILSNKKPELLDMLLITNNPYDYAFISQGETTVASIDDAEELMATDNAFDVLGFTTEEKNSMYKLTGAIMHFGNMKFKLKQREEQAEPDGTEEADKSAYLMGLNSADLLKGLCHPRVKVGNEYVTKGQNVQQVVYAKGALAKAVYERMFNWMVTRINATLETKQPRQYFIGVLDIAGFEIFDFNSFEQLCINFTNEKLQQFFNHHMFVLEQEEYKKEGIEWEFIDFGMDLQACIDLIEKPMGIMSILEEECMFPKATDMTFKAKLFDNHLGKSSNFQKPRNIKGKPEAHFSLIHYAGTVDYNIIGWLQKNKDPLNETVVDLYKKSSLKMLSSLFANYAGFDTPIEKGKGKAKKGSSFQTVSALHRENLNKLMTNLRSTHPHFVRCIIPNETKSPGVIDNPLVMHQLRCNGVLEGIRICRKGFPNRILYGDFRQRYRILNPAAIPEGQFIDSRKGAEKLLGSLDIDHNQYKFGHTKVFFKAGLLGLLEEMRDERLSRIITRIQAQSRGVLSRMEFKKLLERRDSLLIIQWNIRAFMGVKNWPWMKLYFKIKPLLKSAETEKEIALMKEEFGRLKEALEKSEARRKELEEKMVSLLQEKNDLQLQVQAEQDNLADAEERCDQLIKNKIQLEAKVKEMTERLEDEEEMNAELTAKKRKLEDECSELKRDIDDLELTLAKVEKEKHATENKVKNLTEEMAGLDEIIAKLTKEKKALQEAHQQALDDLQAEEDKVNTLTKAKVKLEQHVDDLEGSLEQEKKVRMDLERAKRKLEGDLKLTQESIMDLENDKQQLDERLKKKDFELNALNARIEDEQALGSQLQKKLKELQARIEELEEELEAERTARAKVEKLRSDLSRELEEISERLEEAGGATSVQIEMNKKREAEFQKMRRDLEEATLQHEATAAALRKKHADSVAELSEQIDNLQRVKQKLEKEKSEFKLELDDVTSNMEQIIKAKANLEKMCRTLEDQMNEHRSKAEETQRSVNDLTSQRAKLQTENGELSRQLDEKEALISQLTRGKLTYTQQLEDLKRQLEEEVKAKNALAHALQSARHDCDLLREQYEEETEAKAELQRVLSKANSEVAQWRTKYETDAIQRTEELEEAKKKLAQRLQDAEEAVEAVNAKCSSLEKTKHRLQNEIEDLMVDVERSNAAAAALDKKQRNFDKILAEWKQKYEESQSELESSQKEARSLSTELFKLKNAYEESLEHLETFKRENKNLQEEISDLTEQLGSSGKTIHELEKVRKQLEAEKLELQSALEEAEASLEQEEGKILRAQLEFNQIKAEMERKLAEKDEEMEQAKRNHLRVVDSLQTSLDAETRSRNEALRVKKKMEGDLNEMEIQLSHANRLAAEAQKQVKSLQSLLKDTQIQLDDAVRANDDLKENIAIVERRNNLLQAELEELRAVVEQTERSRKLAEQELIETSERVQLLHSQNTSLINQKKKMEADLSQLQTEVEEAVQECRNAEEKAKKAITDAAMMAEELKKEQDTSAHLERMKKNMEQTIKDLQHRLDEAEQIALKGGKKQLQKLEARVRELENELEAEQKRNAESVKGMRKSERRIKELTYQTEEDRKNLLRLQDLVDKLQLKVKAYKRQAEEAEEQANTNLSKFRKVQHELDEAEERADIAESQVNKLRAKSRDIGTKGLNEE
Chain of bovine cardiac myofibrils (full-length cardiac myosin ATPase in the native sarcomere) (P85100 whole entry partner): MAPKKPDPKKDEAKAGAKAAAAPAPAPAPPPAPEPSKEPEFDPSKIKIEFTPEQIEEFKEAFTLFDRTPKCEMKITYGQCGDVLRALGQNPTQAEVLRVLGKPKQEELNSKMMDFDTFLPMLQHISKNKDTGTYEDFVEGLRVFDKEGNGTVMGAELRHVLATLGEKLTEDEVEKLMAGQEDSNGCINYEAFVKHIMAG
Chain of bovine cardiac myofibrils (full-length cardiac myosin ATPase in the native sarcomere) (Q3SZE5 whole entry partner): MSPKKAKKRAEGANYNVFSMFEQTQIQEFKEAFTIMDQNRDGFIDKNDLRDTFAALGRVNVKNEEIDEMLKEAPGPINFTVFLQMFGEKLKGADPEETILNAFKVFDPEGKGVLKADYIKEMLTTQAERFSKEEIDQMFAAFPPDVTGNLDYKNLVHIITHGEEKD

Regarding `Cc1csc(C(=O)NC2CCc3cc(-c4noc(C(F)F)n4)ccc32)n1` (stereo not drawn) [Compound 60, N-(5-(5-(difluoromethyl)-1,2,4-oxadiazol-3-yl)-2,3-dihydro-1H-inden-1-yl)-4-methylthiazole-2-carboxamide], the “CDMF75 IC15” value is 2.3 µM and the half-maximal inhibitory concentration (IC50) is 8.3 µM.
For the compound `CCc1nc(-c2ccc3c(c2)CC[C@H]3NC(=O)c2ccc(=O)n(CCO)c2)no1` [Compound 605, (R)-N-(5-(5-ethyl-1,2,4-oxadiazol-3-yl)-2,3-dihydro-1H-inden-1-yl)-1-(2-hydroxyethyl)-6-oxo-1,6-dihydropyridine-3-carboxamide], the “CDMF75 IC15” value was determined as 0.8 µM and the concentration for half-maximal inhibition (IC50) amounted to 3.4 µM.
For `COCc1nc(-c2ccc3c(c2)OC[C@H]3NC(=O)c2cccc(CO)c2)no1` [Compound 711, (S)-3-(hydroxymethyl)-N-(6-(5-(methoxymethyl)-1,2,4-oxadiazol-3-yl)-2,3-dihydrobenzofuran-3-yl)benzamide], in that order: 0.8 µM and 2.8 µM.
Taken in the same sequence, the figures for `CCc1nc(-c2ccc3c(c2)CC[C@H]3NC(=O)c2ccncc2)no1` [Compound 628, (R)-N-(5-(5-ethyl-1,2,4-oxadiazol-3-yl)-2,3-dihydro-1H-inden-1-yl)isonicotinamide] were 0.3 µM and 1 µM.
For `Cc1noc(C(=O)NC2CCc3cc(-c4noc(C)n4)ccc32)n1` (stereo not drawn) [Compound 128, 3-methyl-N-(5-(5-methyl-1,2,4-oxadiazol-3-yl)-2,3-dihydro-1H-inden-1-yl)-1,2,4-oxadiazole-5-carboxamide], the “CDMF75 IC15” value came out at 2.6 µM and the IC50 was found to be 12.2 µM.
For `Cc1oncc1C(=O)N[C@@H]1CCc2cc(-c3noc(C(F)F)n3)ccc21` [Compound 72, (R)-N-(5-(5-(difluoromethyl)-1,2,4-oxadiazol-3-yl)-2,3-dihydro-1H-inden-1-yl)-5-methylisoxazole-4-carboxamide], in that order: 0.3 µM and 1 µM.
For `Cc1cc(C(=O)NC2COc3cc(-c4noc(C)n4)cnc32)ccn1` (stereo not drawn) [Compound 187, 2-methyl-N-(6-(5-methyl-1,2,4-oxadiazol-3-yl)-2,3-dihydrofuro[3,2-b]pyridin-3-yl)isonicotinamide], in that order: 11.5 µM and > 39.2 µM.
For `CN1CCN(C(=O)N[C@@H]2CCc3cc(-c4noc(C(F)F)n4)ccc32)CC1` [Compound 302, (R)-N-(5-(5-(difluoromethyl)-1,2,4-oxadiazol-3-yl)-2,3-dihydro-1H-inden-1-yl)-4-methylpiperazine-1-carboxamide], in that order: 39.2 µM and > 39.2 µM.
Regarding `Cc1noc(-c2ccc3c(c2)CC[C@H]3NC(=O)c2cnn(CCO)c2C)n1` [Compound 704, (R)-1-(2-hydroxyethyl)-5-methyl-N-(5-(3-methyl-1,2,4-oxadiazol-5-yl)-2,3-dihydro-1H-inden-1-yl)-1H-pyrazole-4-carboxamide], the “CDMF75 IC15” value turned out to be 2.6 µM and the IC50 came to 11.4 µM.
Taken in the same sequence, the figures for `O=C(N[C@@H]1CCc2cc(-c3noc(C(F)F)n3)ccc21)C1CCCC1` [Compound 287, (R)-N-(5-(5-(difluoromethyl)-1,2,4-oxadiazol-3-yl)-2,3-dihydro-1H-inden-1-yl)cyclopentanecarboxamide] were 39.2 µM and > 39.2 µM.
Taken in the same sequence, the figures for `CCc1nc(-c2ccc3c(c2)CC[C@H]3NC(=O)c2coc(CS(C)(=O)=O)n2)no1` [Compound 468, (R)-N-(5-(5-ethyl-1,2,4-oxadiazol-3-yl)-2,3-dihydro-1H-inden-1-yl)-2-((methylsulfonyl)methyl)oxazole-4-carboxamide] were 6.6 µM and 39.2 µM.
On to `Cc1nc(-c2ccc3c(c2)CC[C@H]3NC(=O)C(F)F)no1` [Compound 435, (R)-2,2-difluoro-N-(5-(5-methyl-1,2,4-oxadiazol-3-yl)-2,3-dihydro-1H-inden-1-yl)acetamide], for which the “CDMF75 IC15” value stood at 2.6 µM and the IC50 came to 11.3 µM.
As for `Cc1nc(-c2ccc3c(c2)CC[C@H]3NC(=O)c2nncn2C)no1` [Compound 164, (R)-4-methyl-N-(5-(5-methyl-1,2,4-oxadiazol-3-yl)-2,3-dihydro-1H-inden-1-yl)-4H-1,2,4-triazole-3-carboxamide], the “CDMF75 IC15” value was found to be 8.2 µM and the IC50 is > 39.2 µM.
Consider `Cc1cc(C(=O)N[C@@H]2CCc3cc(-c4nc(C)no4)ccc32)n(C)n1` [Compound 194, (R)-1,3-dimethyl-N-(5-(3-methyl-1,2,4-oxadiazol-5-yl)-2,3-dihydro-1H-inden-1-yl)-1H-pyrazole-5-carboxamide], for which the “CDMF75 IC15” value was 0.7 µM and the IC50 came out at 2.6 µM.
For `Cc1cc(C(=O)N[C@H]2CCc3cc(-c4nnn(C)n4)ccc32)ccn1` [Compound 149, (S)-2-methyl-N-(5-(2-methyl-2H-tetrazol-5-yl)-2,3-dihydro-1H-inden-1-yl)isonicotinamide], in that order: 39.2 µM and > 39.2 µM.
Taken in the same sequence, the figures for `O=C(N[C@@H]1CCc2cc(-c3noc(C(F)F)n3)ccc21)C1CCCO1` (stereo partly drawn) [Compound 293, N-((R)-5-(5-(difluoromethyl)-1,2,4-oxadiazol-3-yl)-2,3-dihydro-1H-inden-1-yl)tetrahydrofuran-2-carboxamide] were 20.4 µM and > 39.2 µM.
For `CCc1nc(-c2ccc3c(c2)CC[C@H]3NC(=O)OC2CCC2)no1` [Compound 321, cyclobutyl (R)-(5-(5-ethyl-1,2,4-oxadiazol-3-yl)-2,3-dihydro-1H-inden-1-yl)carbamate], in that order: 0.4 µM and 1.3 µM.
For `CCc1nc(-c2cnc3c(c2)CCC3NC(=O)c2ccnc(C)c2)no1` (stereo not drawn) [Compound 108, N-(3-(5-ethyl-1,2,4-oxadiazol-3-yl)-6,7-dihydro-5H-cyclopenta[b]pyridin-7-yl)-2-methylisonicotinamide], the “CDMF75 IC15” value worked out at 5.2 µM and the IC50 was 24 µM.
For `Cn1nccc1C(=O)N[C@@H]1CCc2cc(-c3nc(C4CC4)no3)ccc21` [Compound 261, (R)—N-(5-(3-cyclopropyl-1,2,4-oxadiazol-5-yl)-2,3-dihydro-1H-inden-1-yl)-1-methyl-1H-pyrazole-5-carboxamide], in that order: 0.4 µM and 1.2 µM.
With `Cc1c(C(=O)N[C@@H]2CCc3cc(-c4nc(C(F)F)no4)ccc32)cnn1C` [Compound 277, (R)-N-(5-(3-(difluoromethyl)-1,2,4-oxadiazol-5-yl)-2,3-dihydro-1H-inden-1-yl)-1,5-dimethyl-1H-pyrazole-4-carboxamide], the “CDMF75 IC15” value turned out to be 1.4 µM and the IC50 is 5.4 µM.
As for `CCc1nc(-c2ccc3c(c2)CC[C@H]3NC(=O)c2cnn(CCOC)c2C)no1` [Compound 574, (R)-N-(5-(5-ethyl-1,2,4-oxadiazol-3-yl)-2,3-dihydro-1H-inden-1-yl)-1-(2-methoxyethyl)-5-methyl-1H-pyrazole-4-carboxamide], the “CDMF75 IC15” value is 1.0 µM and the IC50 was determined as 4.2 µM.

What is called IC50 is the concentration needed to halve the response being measured.
